According to patent US20150057363A1, “TREATMENT OF METHYLMALONIC ACIDURIA, ISOVALERIC ACIDURIA, AND OTHER ORGANIC ACIDURIAS WITH TOCOTRIENOL QUINONES” (priority 2011, published 2015):

Experiments:
rats = conditions: rat, in vivo
Method: (§1) The particular dosage appropriate for a specific patient is determined by dose titration. […] This lack of dose-proportionality may be due to decreased absorption since there is no change in t1/2 over dose range. Alpha-tocotrienol quinone tested in rats was safe when given acutely up to 2000 mg/kg.
The starting dose can be estimated based on the United States Food and Drug Administration guidelines titled “Estimating the Maximum Safe Starting Dose in Initial Clinical Trials for Therapeutics in Adult Healthy Volunteers” (July 2005) as well as the International Conference on Harmonisation of Technical Requirements for Registration of Pharmaceuticals for Human Use (ICH) guidelines titled “Guidance on Non-clinical Safety Studies for the Conduct of Human Clinical Trials and Marketing Authorization for Pharmaceuticals” (July 2008). Per ICH guidelines, predicted exposures from the starting dose should not exceed 1/50th the NOAEL (No-Adverse-Observed-Effect-Level) in the more sensitive species on a mg/m^2 basis. Following a single oral dose of alpha-tocotrienol quinone, the NOAEL was established to be 500 mg/kg for the female rat, i.e. 3,000 mg/m2. This dosage would be equivalent to 81 mg/kg in an adult human. 1/50th of 81 mg/kg is 1.6 mg/kg, i.e. 110 mg for a 70 kg adult, or 16 mg for a 10 kg child. This dose can be administered once, twice, or three times daily.

[1] = Blood-brain barrier crossing in mice; type: in vivo
[2] = Pharmacokinetics of alpha-tocotrienol quinone in fasted dogs; conditions: dog, in vivo, po, 10 mg/kg
Method: as §1

MMA fibroblasts = assay: MMA cell line assay: rescue of BSO-stressed fibroblasts (cell viability, Calcein AM); type: cell-based; conditions: Homo sapiens, Fibroblast; fibroblasts from MMA patient stressed with 25 μM BSO; Calcein AM readout; read-out: ED50 (protection of cell viability)
Method: Alpha-Tocotrienol quinone, its redox-silent version (the bis-Boc protected corresponding hydroquinone), and solvent controls were tested for their ability to rescue cells from MMA fibroblasts of the patient diagnosed with MMA, when the cells were stressed by addition of L-buthionine-(S,R)-sulfoximine (BSO), as described in Jauslin et al., Hum. Mol. Genet. 11(24):3055 (2002), Jauslin et al., FASEB J. 17:1972-4 (2003), and International Patent Application WO 2004/003565. EC50 concentrations of test compound and its redox-silent version were determined and compared. The following compound, 2-((6E,10E)-3-hydroxy-3,7,11,15-tetramethylhexadeca-6,10,14-trienyl)-3,5,6-trimethyl-bis(t-butyloxycarbonyl)benzene-1,4-diol, the bis-Boc protected hydroquinone form of alpha-tocotrienol quinone, was used as the “redox-silent” alpha tocotrienol quinone, or αTTQ-RS.
DMEM (Dulbecco's Modified Eagle Medium)—No Glucose, No pyruvate—GIBCO®—Catalog number 11966-025 from Invitrogen. Fetal Calf Serum was obtained from PAA Laboratories. Basic fibroblast growth factor and epidermal growth factor were purchased from PeproTech. Penicillin-streptomycin-glutamine mix, L-buthionine (S,R)-sulfoximine, and insulin from bovine pancreas were purchased from Sigma. Calcein AM was purchased from Molecular Probes. […]

[3] = Pharmacokinetics of alpha-tocotrienol quinone in rats; type: in vivo, rat
Method: as §1

Structure (SMILES): CC(C)=CCC/C(C)=C/CC/C(C)=C/CCC(C)(O)CCC1=C(C)C(=O)C(C)=C(C)C1=O (stereo not drawn) [alpha-tocotrienol quinone, Alpha-tocotrienol quinone]
- safe when given acutely up to (rats): up to 2000 mg/kg
- NOAEL on mg/m2 basis (rats; po): 3,000 mg/m2
- crosses the blood-brain barrier [1]: crosses the blood-brain barrier
- bioavailability [2]: ~16%
- EC50 (MMA fibroblasts): 23 nM
- dose-proportionality of AUC ([3]; increase in doses of 2.4: 6: 10: 20 gives increase in AUCs of 1.5: 2.8: 4.0: 6.7): less than dose-proportionality
- bioavailability ([3]; rat, in vivo, 10 mg/kg): ~90%
